Consider one compound from patent US5641793A, “Pyridine compounds which have useful pharmaceutical activity” (Zeneca Limited, priority 1994, dated 1997).

The structures appear in SMILES notation.

Experiment [1] relates to Human ETA or ETB receptors. Put plainly: Test A: inhibition of [125I]-Endothelin-1 binding to MEL cell membranes expressing recombinant receptor. To be noted: inhibition of 30 pM [125I]-Endothelin-1 binding; receptor sub-type (ETA or ETB) not given. The text has this:
The endothelin receptor antagonist activity of compounds of formula I may be assessed in vitro by their ability to inhibit binding of [^125 I]-Endothelin-1 to its receptors. Human ETA or ETB receptors (sub-types of the endothelin receptor) were expressed in Mouse Erythroleukemic Cells (MEL cells) by using standard molecular techniques (for example, as described by Sambrook J., Fritsch E. F. & Maniatis T. (1989) Molecular Cloning: A Laboratory Manual, 2nd Edition, Cold Spring Harbor Press, U.S.A.). cDNA sequences encoding the human ETA and ETB receptor (Hosoda K. et al (1991), FEBS Lett., 287, 23-26 and Sakamoto A. et al, (1991), Biochem. Biophys Res. Comm., 178, 656-663) are subcloned into pBluescript vector followed by insertion into the MEL cell expression vector pEV as described by Needham et al (1992), Nuc. Acids Res., 20, 997-1003. […]
[^125 I]-Endothelin-1 binding to MEL cell membranes was measured in incubation buffer containing 50 mM Tris HCl, 1 mM CaCl2, 0.05% polyoxyethylenesorbitan monolaurate, 0.1% Bovine Serum Albumin (BSA), 0.02% sodium azide pH 7.4 at 30° C. after 180 minutes incubation. […] Nonspecific binding was measured in the presence of 100 nM unlabelled Endothelin-1. […] The filter discs were punched out and counted in a gamma counter. Compounds are tested in triplicate over a range of concentrations and IC50 (or pIC50) values calculated.

Experiment [2] has as its system endothelin receptor. Put plainly: Test B: inhibition of the relaxant response to endothelin-1 in guinea-pig isolated taenia coli. To be noted: antagonism of endothelin-1 relaxation, initial test concentration 20 μM. The protocol:
The endothelin receptor antagonist activity of compounds of formula I may be assessed in vitro in isolated tissues by their ability to inhibit the relaxant response to endothelin-1 in the guinea-pig isolated taenia coli. Guinea pigs of either sex and weight >250 g are killed by cervical dislocation and the caecum removed and placed in cold oxygenated Krebs solution. Strips of taenia coli are dissected out and approximately 4 cm lengths set up for isotonic recording in a 20 ml organ bath containing oxygenated Krebs solution at 32° C. After a […] equilibration period to allow the tissue to spontaneously develop an increased tone, a cumulative concentration-response curve (relaxation) is constructed to endothelin-1 (0.3-10 nM). The tissue is then washed for a period of at least 90 minutes before construction of a second concentration-response curve to endothelin-1 in the presence of the test compound. The test compound is added to the organ bath (at an initial concentration of 20 μM) at least 30 minutes before constructing the second concentration-response curve to endothelin-1. The endothelin-1 concentration ratio for each experiment is determined by comparing the most parallel portions of the control and drug treated concentration-response curves. From this a pA2 is calculated: pA2 =-log[molar drug concentration]+log[concentration ratio-1].

Turning to `Cc1cc(Br)cnc1NS(=O)(=O)c1cccc2c(N(C)C)cccc12` [Example 6, 5-(dimethylamino)-N-(5-bromo-3-methyl-2-pyridyl)-1-naphthalenesulphonamide], the “pIC50 in test A” value in experiment [1] came to 6.5. Besides, the “pA2 in test B” value in experiment [2] was found to be 6.6.
